Experimental data from US5281604A, “Angiotensin II receptor blocking 2,3,6-substituted quinazolinones” (American Cyanamid Company, priority 1993, dated 1994).
Several values for one entry are separate records, joined by “and”; a condition that tells them apart may be missing. Equal values may be shown once.

System: ANGIOTENSIN II (AII) VASOPRESSOR RESPONSE
Assay: AII Challenge: blockade of the angiotensin II vasopressor response in conscious spontaneously hypertensive rats
Format: in vivo, rat (Male Okamoto-Aoki SHR)
Source text: By administering a compound of this invention to a rat, and then challenging with angiotensin II, a blockage of the vasopressor response is realized.
Conscious Male Okamoto-Aoki SHR, 16-20 weeks old, weighing approximately 330 g are purchased from Charles River Labs (Wilmington, Mass.). Conscious rats are restrained in a supine position with elastic tape. The area at the base of the tail is locally anesthetized by subcutaneous infiltration with 2% procaine. The ventral caudal artery and vein are isolated, and a cannula made of polyethylene (PE) 10-20 tubing (fused together by heat) is passed into the lower abdominal aorta and vena cava, respectively. The cannula is secured, heparinized (1,000 I.U./ml), sealed and the wound is closed. The animals are placed in plastic restraining cages in an upright position. The cannula is attached to a Statham P23Db pressure transducer, and pulsatile blood pressure is recorded to 10-15 minutes with a Gould Brush recorder. (Chan et al., (Drug Development Res., 18:75-94, 1989).
Angiotensin II (human sequence, Sigma Chem. Co., St. Louis, Mo.) of 0.05 and 0.1 ug/kg i.v. is injected into all rats (predosing response). Then a test compound, vehicle or a known angiotensin II antagonist is administered i.v., i.p. or orally to each set of rats. The two doses of angiotensin II are given to each rat again at 30, 60, 90, 120, 180, 240 and 300 minutes post dosing the compound or vehicle. The vasopressor response of angiotensin II is measured for the increase in systolic blood pressure in mmHg. The percentage of antagonism or blockade of the vasopressor response of angiotensin II by a compound is calculated using the vasopressor response (increase in systolic blood pressure) of angiotensin II of each rat predosing the compound as 100%. A compound is considered active if at 30 mg/kg i.v. it antagonized at least 50% of the response.

[1] = 3 mg/kg i.v., AII 0.05 mcg/kg IV, 30 min post dose
[2] = 3 mg/kg i.v., AII 0.05 mcg/kg IV, 60 min post dose
[3] = 3 mg/kg i.v., AII 0.05 mcg/kg IV, 90 min post dose
[4] = 3 mg/kg i.v., AII 0.05 mcg/kg IV, 120 min post dose
[5] = 3 mg/kg i.v., AII 0.05 mcg/kg IV, 180 min post dose
[6] = 3 mg/kg i.v., AII 0.05 mcg/kg IV, 240 min post dose
[7] = 3 mg/kg i.v., AII 0.05 mcg/kg IV, 300 min post dose
[8] = 3 mg/kg i.v., AII 0.1 mcg/kg IV, 30 min post dose
[9] = 3 mg/kg i.v., AII 0.1 mcg/kg IV, 60 min post dose
[10] = 3 mg/kg i.v., AII 0.1 mcg/kg IV, 90 min post dose
[11] = 3 mg/kg i.v., AII 0.1 mcg/kg IV, 120 min post dose
[12] = 3 mg/kg i.v., AII 0.1 mcg/kg IV, 180 min post dose
[13] = 3 mg/kg i.v., AII 0.1 mcg/kg IV, 240 min post dose
[14] = 3 mg/kg i.v., AII 0.1 mcg/kg IV, 300 min post dose
[15] = 1 mg/kg i.v., AII 0.05 mcg/kg IV, 30 min post dose
[16] = 1 mg/kg i.v., AII 0.1 mcg/kg IV, 30 min post dose
[17] = 29 mg/kg i.v., AII 0.05 mcg/kg IV, 60 min post dose
[18] = 29 mg/kg i.v., AII 0.05 mcg/kg IV, 90 min post dose
[19] = 29 mg/kg i.v., AII 0.05 mcg/kg IV, 120 min post dose
[20] = 29 mg/kg i.v., AII 0.05 mcg/kg IV, 180 min post dose
[21] = 29 mg/kg i.v., AII 0.05 mcg/kg IV, 240 min post dose
[22] = 29 mg/kg i.v., AII 0.05 mcg/kg IV, 300 min post dose
[23] = 29 mg/kg i.v., AII 0.1 mcg/kg IV, 60 min post dose
[24] = 29 mg/kg i.v., AII 0.1 mcg/kg IV, 90 min post dose
[25] = 29 mg/kg i.v., AII 0.1 mcg/kg IV, 120 min post dose
[26] = 29 mg/kg i.v., AII 0.1 mcg/kg IV, 180 min post dose
[27] = 29 mg/kg i.v., AII 0.1 mcg/kg IV, 240 min post dose
[28] = 29 mg/kg i.v., AII 0.1 mcg/kg IV, 300 min post dose

## CCCCc1nc2ccc(C3CC4C(O3)ON3C4CCC3(C)C)cc2c(=O)n1Cc1ccc(-c2ccccc2-c2nnn[nH]2)cc1 (centres unmarked) [Example 14]
[1]
  % Inhibition: 79%
  Average Change: 7.5 mmHg
  Control Before AII (single rat): 225 mmHg and 240 mmHg
  Response After AII (single rat): 225 mmHg and 250 mmHg
  Response Change (single rat): 0 mmHg and 15 mmHg
[2]
  % Inhibition: 64%
  Average Change: 12.5 mmHg
  Control Before AII (single rat): 225 mmHg and 240 mmHg
  Response After AII (single rat): 235 mmHg and 255 mmHg
  Response Change (single rat): 10 mmHg and 15 mmHg
[3]
  % Inhibition: 74%
  Average Change: 9 mmHg
  Control Before AII (single rat): 225 mmHg and 237 mmHg
  Response After AII (single rat): 235 mmHg and 245 mmHg
  Response Change (single rat): 10 mmHg and 8 mmHg
[4]
  % Inhibition: 76%
  Average Change: 8.5 mmHg
  Control Before AII (single rat): 210 mmHg and 230 mmHg
  Response After AII (single rat): 215 mmHg and 242 mmHg
  Response Change (single rat): 5 mmHg and 12 mmHg
[5]
  % Inhibition: 76%
  Average Change: 8.5 mmHg
  Control Before AII (single rat): 215 mmHg and 230 mmHg
  Response After AII (single rat): 225 mmHg and 237 mmHg
  Response Change (single rat): 10 mmHg and 7 mmHg
[6]
  % Inhibition: 71%
  Average Change: 10 mmHg
  Control Before AII (single rat): 205 mmHg and 230 mmHg
  Response After AII (single rat): 215 mmHg and 240 mmHg
  Response Change (single rat): 10 mmHg
[7]
  % Inhibition: 74%
  Average Change: 9 mmHg
  Control Before AII (single rat): 220 mmHg and 235 mmHg
  Response After AII (single rat): 228 mmHg and 245 mmHg
  Response Change (single rat): 8 mmHg and 10 mmHg
[8]
  % Inhibition: 56%
  Average Change: 17.5 mmHg
  Control Before AII (single rat): 230 mmHg and 245 mmHg
  Response After AII (single rat): 240 mmHg and 270 mmHg
  Response Change (single rat): 10 mmHg and 25 mmHg
[9]
  % Inhibition: 56%
  Average Change: 17.5 mmHg
  Control Before AII (single rat): 215 mmHg and 245 mmHg
  Response After AII (single rat): 235 mmHg and 260 mmHg
  Response Change (single rat): 20 mmHg and 15 mmHg
[10]
  % Inhibition: 60%
  Average Change: 16 mmHg
  Control Before AII (single rat): 220 mmHg and 240 mmHg
  Response After AII (single rat): 235 mmHg and 257 mmHg
  Response Change (single rat): 15 mmHg and 17 mmHg
[11]
  % Inhibition: 63%
  Average Change: 15 mmHg
  Control Before AII (single rat): 215 mmHg and 230 mmHg
  Response After AII (single rat): 230 mmHg and 245 mmHg
  Response Change (single rat): 15 mmHg
[12]
  % Inhibition: 69%
  Average Change: 12.5 mmHg
  Control Before AII (single rat): 215 mmHg and 230 mmHg
  Response After AII (single rat): 225 mmHg and 245 mmHg
  Response Change (single rat): 10 mmHg and 15 mmHg
[13]
  % Inhibition: 56%
  Average Change: 17.5 mmHg
  Control Before AII (single rat): 215 mmHg and 225 mmHg
  Response After AII (single rat): 230 mmHg and 245 mmHg
  Response Change (single rat): 15 mmHg and 20 mmHg
[14]
  % Inhibition: 46%
  Average Change: 21.5 mmHg
  Control Before AII (single rat): 215 mmHg and 235 mmHg
  Response After AII (single rat): 233 mmHg and 260 mmHg
  Response Change (single rat): 18 mmHg and 25 mmHg

## CCCCc1nc2ccc(C3CC4C(O3)ON(c3ccccc3)C4c3ccccc3)cc2c(=O)n1Cc1ccc(-c2ccccc2-c2nnn[nH]2)cc1 (stereo not drawn) [Example 10, (3α, 3aβ, 5β, 6aβ)-2-Butyl-6-(hexahydro-2,3-diphenylfuro[3,2-d]isoxazol-5-yl)-3-[[2'-(1H-tetrazol-5-yl)[1,1'-biphenyl]-4-yl]methyl]-4(3H)-quinazolinone]
[15]
  % Inhibition: 39%
  Average Change: 33.5 mmHg
  Control Before AII (single rat): 248 mmHg and 230 mmHg
  Response After AII (single rat): 290 mmHg and 255 mmHg
  Response Change (single rat): 42 mmHg and 25 mmHg
[16]
  % Inhibition: 41%
  Average Change: 42.5 mmHg
  Control Before AII (single rat): 250 mmHg and 220 mmHg
  Response After AII (single rat): 295 mmHg and 260 mmHg
  Response Change (single rat): 45 mmHg and 40 mmHg
[17]
  % Inhibition: 82%
  Average Change: 10 mmHg
  Control Before AII (single rat): 265 mmHg and 235 mmHg
  Response After AII (single rat): 270 mmHg and 250 mmHg
  Response Change (single rat): 5 mmHg and 15 mmHg
[18]
  % Inhibition: 82%
  Average Change: 10 mmHg
  Control Before AII (single rat): 235 mmHg and 230 mmHg
  Response After AII (single rat): 250 mmHg and 235 mmHg
  Response Change (single rat): 15 mmHg and 5 mmHg
[19]
  % Inhibition: 77%
  Average Change: 12.5 mmHg
  Control Before AII (single rat): 210 mmHg and 240 mmHg
  Response After AII (single rat): 225 mmHg and 250 mmHg
  Response Change (single rat): 15 mmHg and 10 mmHg
[20]
  % Inhibition: 73%
  Average Change: 15 mmHg
  Control Before AII (single rat): 215 mmHg and 220 mmHg
  Response After AII (single rat): 235 mmHg and 230 mmHg
  Response Change (single rat): 20 mmHg and 10 mmHg
[21]
  % Inhibition: 82%
  Average Change: 10 mmHg
  Control Before AII (single rat): 220 mmHg and 215 mmHg
  Response After AII (single rat): 235 mmHg and 220 mmHg
  Response Change (single rat): 15 mmHg and 5 mmHg
[22]
  % Inhibition: 73%
  Average Change: 15 mmHg
  Control Before AII (single rat): 210 mmHg and 200 mmHg
  Response After AII (single rat): 220 mmHg
  Response Change (single rat): 10 mmHg and 20 mmHg
[23]
  % Inhibition: 86%
  Average Change: 10 mmHg
  Control Before AII (single rat): 265 mmHg and 230 mmHg
  Response After AII (single rat): 270 mmHg and 245 mmHg
  Response Change (single rat): 5 mmHg and 15 mmHg
[24]
  % Inhibition: 72%
  Average Change: 20 mmHg
  Control Before AII (single rat): 230 mmHg and 235 mmHg
  Response After AII (single rat): 250 mmHg and 255 mmHg
  Response Change (single rat): 20 mmHg
[25]
  % Inhibition: 65%
  Average Change: 25 mmHg
  Control Before AII (single rat): 200 mmHg and 215 mmHg
  Response After AII (single rat): 230 mmHg and 235 mmHg
  Response Change (single rat): 30 mmHg and 20 mmHg
[26]
  % Inhibition: 79%
  Average Change: 15 mmHg
  Control Before AII (single rat): 210 mmHg and 220 mmHg
  Response After AII (single rat): 225 mmHg and 235 mmHg
  Response Change (single rat): 15 mmHg
[27]
  % Inhibition: 79%
  Average Change: 15 mmHg
  Control Before AII (single rat): 215 mmHg
  Response After AII (single rat): 235 mmHg and 225 mmHg
  Response Change (single rat): 20 mmHg and 10 mmHg
[28]
  % Inhibition: 79%
  Average Change: 15 mmHg
  Control Before AII (single rat): 210 mmHg
  Response After AII (single rat): 230 mmHg and 220 mmHg
  Response Change (single rat): 20 mmHg and 10 mmHg
